The kinase profiling compilation of Christmann-Franck et al. (2016)

Legend:
Assay in all cases: KINOMEscan competition binding
Conditions in all cases: compound 1.0 µM
SYK (human) = SYK (human) (UniProt P43405)
CAMKK1 (human) = CAMKK1 (human) (UniProt Q8N5S9)
[1] = system: FLT3 (human), P36888 [R834Q]
MTOR (human) = MTOR (human) (UniProt P42345)
AKT2 (human) = AKT2 (human) (UniProt P31751)
ROCK2 (human) = ROCK2 (human) (UniProt O75116)
[2] = system: PIK3CA (human), P42336 [Q546K]
[3] = target: JAK1 JH1 catalytic (human) (UniProt P23458)
BLK (human) = BLK (human) (UniProt P51451)
MAPK8 (human) = MAPK8 (human) (UniProt P45983)
MARK3 (human) = MARK3 (human) (UniProt P27448)
PDPK1 (human) = PDPK1 (human) (UniProt O15530)
STK11 (human) = STK11 (human) (UniProt Q15831)
STK39 (human) = STK39 (human) (UniProt Q9UEW8)
STK10 (human) = STK10 (human) (UniProt O94804)
ERN1 (human) = ERN1 (human) (UniProt O75460)
CAMK2B (human) = CAMK2B (human) (UniProt Q13554)
[4] = system: ABL1 (human), P00519 [Y253F]
MARK4 (human) = MARK4 (human) (UniProt Q96L34)
ABL2 (human) = ABL2 (human) (UniProt P42684)
PHKG2 (human) = PHKG2 (human) (UniProt P15735)
MAPK15 (human) = MAPK15 (human) (UniProt Q8TD08)
MAP3K9 (human) = MAP3K9 (human) (UniProt P80192)
NLK (human) = NLK (human) (UniProt Q9UBE8)
TNNI3K (human) = TNNI3K (human) (UniProt Q59H18)
CDKL3 (human) = CDKL3 (human) (UniProt Q8IVW4)
MAK (human) = MAK (human) (UniProt P20794)
PRKCI (human) = PRKCI (human) (UniProt P41743)
Chain of PRKCI (human) (P41743 whole entry, looked up): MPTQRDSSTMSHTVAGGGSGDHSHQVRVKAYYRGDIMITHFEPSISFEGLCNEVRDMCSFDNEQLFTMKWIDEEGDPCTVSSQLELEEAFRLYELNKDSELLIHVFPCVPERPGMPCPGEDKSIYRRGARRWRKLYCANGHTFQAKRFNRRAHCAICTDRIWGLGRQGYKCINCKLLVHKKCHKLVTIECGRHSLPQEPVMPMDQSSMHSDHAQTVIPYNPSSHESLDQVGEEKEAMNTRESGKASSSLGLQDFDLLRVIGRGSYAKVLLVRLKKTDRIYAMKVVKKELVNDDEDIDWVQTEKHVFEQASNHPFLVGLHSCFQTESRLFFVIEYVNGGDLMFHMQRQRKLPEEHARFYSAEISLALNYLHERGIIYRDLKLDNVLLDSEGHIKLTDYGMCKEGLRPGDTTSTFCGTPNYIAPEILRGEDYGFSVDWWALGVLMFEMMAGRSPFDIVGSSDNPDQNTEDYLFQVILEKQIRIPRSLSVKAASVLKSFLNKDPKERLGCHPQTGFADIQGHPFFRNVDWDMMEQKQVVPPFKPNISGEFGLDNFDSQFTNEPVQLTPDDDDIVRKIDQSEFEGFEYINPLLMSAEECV

CSK (human) = CSK (human) (UniProt P41240)
CSNK1G1 (human) = CSNK1G1 (human) (UniProt Q9HCP0)
ROCK1 (human) = ROCK1 (human) (UniProt Q13464)
PRKAA2 (human) = PRKAA2 (human) (UniProt P54646)
Chain of PRKAA2 (human) (P54646 whole entry, looked up): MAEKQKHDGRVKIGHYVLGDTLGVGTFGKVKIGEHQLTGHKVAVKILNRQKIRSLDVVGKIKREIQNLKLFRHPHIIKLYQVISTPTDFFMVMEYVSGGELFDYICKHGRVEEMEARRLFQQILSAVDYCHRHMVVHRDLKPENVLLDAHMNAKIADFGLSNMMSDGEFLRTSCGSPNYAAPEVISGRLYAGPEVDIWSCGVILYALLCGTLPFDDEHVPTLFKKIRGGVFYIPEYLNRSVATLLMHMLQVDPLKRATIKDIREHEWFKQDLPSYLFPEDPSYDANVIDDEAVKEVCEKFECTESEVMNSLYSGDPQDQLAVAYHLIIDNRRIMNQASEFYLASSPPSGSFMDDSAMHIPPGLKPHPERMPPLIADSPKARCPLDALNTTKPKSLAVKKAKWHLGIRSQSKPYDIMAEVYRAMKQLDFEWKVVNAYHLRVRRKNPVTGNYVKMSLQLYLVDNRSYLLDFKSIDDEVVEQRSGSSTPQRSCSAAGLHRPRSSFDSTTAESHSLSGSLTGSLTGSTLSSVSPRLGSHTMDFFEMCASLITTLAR

[5] = system: KIT (human), P10721 [V559D]
RPS6KA4 KD1 (human) = RPS6KA4 KD1 (human) (UniProt O75676)
RPS6KB1 (human) = RPS6KB1 (human) (UniProt P23443)
Chain of RPS6KB1 (human) (P23443 whole entry, looked up): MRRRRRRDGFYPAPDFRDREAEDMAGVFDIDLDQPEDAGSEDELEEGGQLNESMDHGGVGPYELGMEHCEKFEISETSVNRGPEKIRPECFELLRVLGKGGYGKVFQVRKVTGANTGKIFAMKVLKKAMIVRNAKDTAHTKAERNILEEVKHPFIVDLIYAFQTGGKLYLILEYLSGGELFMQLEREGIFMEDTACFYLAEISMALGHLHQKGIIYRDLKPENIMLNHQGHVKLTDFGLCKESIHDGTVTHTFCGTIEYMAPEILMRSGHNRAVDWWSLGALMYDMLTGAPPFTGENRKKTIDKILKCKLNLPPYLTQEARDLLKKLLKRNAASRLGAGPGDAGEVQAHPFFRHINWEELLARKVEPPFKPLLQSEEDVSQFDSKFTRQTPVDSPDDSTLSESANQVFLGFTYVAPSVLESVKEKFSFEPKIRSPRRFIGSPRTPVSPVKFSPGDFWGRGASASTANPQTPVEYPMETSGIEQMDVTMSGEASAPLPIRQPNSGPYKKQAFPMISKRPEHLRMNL

[6] = system: KIT (human), P10721 [V559D/V654A]
Chain of KIT (human), P10721 [V559D/V654A] (P10721 whole entry V559D/V654A, looked up): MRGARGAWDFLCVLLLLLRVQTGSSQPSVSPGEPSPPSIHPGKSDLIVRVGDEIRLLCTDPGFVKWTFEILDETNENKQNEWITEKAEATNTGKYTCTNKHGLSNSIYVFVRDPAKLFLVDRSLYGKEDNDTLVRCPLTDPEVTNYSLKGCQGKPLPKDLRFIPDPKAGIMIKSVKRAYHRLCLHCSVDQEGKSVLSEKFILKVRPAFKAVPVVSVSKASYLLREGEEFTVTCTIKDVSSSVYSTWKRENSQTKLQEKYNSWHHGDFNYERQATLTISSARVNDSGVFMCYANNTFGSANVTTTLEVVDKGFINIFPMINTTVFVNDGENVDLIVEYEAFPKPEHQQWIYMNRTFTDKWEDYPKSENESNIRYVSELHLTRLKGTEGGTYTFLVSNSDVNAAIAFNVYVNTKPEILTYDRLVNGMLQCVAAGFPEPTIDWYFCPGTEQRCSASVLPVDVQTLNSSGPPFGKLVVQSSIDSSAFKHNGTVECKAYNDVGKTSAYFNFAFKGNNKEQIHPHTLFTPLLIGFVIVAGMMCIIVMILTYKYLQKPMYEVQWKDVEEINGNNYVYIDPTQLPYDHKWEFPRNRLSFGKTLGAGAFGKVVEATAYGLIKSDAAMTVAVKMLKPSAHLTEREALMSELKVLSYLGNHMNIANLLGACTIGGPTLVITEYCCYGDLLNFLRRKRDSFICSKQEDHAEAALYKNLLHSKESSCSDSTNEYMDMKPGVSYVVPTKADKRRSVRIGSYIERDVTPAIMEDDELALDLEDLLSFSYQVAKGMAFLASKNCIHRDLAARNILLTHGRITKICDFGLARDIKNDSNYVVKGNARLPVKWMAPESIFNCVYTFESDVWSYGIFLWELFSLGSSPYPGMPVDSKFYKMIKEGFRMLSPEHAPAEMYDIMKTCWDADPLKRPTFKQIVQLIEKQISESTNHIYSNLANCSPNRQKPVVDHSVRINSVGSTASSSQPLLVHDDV

HCK (human) = HCK (human) (UniProt P08631)
Chain of HCK (human) (P08631 whole entry, looked up): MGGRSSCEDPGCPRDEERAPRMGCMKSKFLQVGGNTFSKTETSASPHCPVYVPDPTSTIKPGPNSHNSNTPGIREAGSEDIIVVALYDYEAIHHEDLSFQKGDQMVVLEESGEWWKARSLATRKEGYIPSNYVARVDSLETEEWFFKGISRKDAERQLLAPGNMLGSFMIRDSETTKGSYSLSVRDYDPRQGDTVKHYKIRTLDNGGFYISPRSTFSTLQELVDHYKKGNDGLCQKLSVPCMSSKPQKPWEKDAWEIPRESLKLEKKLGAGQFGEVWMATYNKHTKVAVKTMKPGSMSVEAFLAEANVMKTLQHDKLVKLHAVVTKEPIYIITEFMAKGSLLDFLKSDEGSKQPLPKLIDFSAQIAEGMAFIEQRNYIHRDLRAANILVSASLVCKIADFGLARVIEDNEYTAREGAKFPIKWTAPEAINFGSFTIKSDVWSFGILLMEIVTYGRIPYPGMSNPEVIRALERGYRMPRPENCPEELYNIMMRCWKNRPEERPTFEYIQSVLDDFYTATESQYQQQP

HIPK4 (human) = HIPK4 (human) (UniProt Q8NE63)
PIK3CB (human) = PIK3CB (human) (UniProt P42338)
Chain of PIK3CB (human) (P42338 whole entry, looked up): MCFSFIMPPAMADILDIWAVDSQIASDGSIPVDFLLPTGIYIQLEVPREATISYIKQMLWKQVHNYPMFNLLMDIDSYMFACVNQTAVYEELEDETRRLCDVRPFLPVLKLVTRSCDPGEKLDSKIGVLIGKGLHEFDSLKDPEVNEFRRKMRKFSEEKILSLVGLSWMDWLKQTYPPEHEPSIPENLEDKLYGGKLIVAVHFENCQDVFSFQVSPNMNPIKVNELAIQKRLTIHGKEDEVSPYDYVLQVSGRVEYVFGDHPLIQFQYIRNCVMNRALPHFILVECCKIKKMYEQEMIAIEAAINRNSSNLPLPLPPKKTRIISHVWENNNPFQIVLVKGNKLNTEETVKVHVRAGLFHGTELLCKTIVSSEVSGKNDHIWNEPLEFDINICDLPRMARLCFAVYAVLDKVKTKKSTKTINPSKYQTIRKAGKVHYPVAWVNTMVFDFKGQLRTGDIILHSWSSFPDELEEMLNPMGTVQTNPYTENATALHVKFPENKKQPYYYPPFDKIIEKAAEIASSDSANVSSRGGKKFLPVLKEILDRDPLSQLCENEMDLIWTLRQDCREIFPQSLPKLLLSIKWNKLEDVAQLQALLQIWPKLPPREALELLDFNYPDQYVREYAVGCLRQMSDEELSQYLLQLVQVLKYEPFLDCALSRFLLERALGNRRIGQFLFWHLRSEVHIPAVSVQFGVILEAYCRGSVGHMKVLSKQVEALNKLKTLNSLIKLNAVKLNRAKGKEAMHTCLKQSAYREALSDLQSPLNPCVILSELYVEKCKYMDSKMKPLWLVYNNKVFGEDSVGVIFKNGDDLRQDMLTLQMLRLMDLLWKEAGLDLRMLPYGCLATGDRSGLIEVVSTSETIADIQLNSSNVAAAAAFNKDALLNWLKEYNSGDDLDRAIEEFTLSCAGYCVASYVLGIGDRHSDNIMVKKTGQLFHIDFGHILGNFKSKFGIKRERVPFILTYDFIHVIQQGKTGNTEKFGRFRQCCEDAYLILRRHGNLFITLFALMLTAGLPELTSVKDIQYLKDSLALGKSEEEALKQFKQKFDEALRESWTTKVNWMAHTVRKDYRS

DAPK2 (human) = DAPK2 (human) (UniProt Q9UIK4)
Chain of DAPK2 (human) (Q9UIK4 whole entry, looked up): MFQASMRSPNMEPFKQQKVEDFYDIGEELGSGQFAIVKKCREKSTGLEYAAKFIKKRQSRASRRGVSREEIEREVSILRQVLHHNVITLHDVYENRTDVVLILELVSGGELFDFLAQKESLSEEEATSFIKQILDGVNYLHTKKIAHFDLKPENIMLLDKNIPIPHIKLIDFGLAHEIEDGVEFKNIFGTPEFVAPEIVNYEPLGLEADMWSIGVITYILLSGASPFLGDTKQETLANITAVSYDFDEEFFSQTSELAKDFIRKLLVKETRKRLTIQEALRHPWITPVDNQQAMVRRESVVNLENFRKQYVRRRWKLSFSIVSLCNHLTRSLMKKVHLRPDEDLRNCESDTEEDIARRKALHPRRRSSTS

MAPK9 (human) = MAPK9 (human) (UniProt P45984)
Chain of MAPK9 (human) (P45984 whole entry, looked up): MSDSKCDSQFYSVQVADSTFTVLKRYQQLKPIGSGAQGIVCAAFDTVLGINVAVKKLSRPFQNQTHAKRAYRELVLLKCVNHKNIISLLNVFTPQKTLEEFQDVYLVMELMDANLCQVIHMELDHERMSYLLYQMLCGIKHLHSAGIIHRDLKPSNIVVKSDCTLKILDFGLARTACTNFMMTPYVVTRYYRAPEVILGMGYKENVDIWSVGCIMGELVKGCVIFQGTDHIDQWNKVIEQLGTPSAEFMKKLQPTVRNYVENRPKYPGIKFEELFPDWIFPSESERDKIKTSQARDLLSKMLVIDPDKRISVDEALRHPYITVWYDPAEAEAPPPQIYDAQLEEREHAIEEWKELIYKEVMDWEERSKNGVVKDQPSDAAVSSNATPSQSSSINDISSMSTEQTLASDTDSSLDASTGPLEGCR

ALK (human) = ALK (human) (UniProt Q9UM73)
CDKL2 (human) = CDKL2 (human) (UniProt Q92772)

CN(C)C/C=C/C(=O)Nc1cccc(C(=O)Nc2ccc(Nc3nccc(-c4cccnc4)n3)cc2)c1
kinase still bound, per cent of control (SYK (human)): 66% | kinase still bound, per cent of control (CAMKK1 (human)): 64% | kinase still bound, per cent of control [1]: 74% | kinase still bound, per cent of control (MTOR (human)): 100% | kinase still bound, per cent of control (AKT2 (human)): 96% | kinase still bound, per cent of control (ROCK2 (human)): 16% | kinase still bound, per cent of control [2]: 100% | kinase still bound, per cent of control [3]: 100% | kinase still bound, per cent of control (BLK (human)): 100% | kinase still bound, per cent of control (MAPK8 (human)): 0% | kinase still bound, per cent of control (MARK3 (human)): 100% | kinase still bound, per cent of control (PDPK1 (human)): 93% | kinase still bound, per cent of control (STK11 (human)): 67% | kinase still bound, per cent of control (STK39 (human)): 95% | kinase still bound, per cent of control (STK10 (human)): 100% | kinase still bound, per cent of control (ERN1 (human)): 78% | kinase still bound, per cent of control (CAMK2B (human)): 82% | kinase still bound, per cent of control [4]: 39% | kinase still bound, per cent of control (MARK4 (human)): 40% | kinase still bound, per cent of control (ABL2 (human)): 79% | kinase still bound, per cent of control (PHKG2 (human)): 64% | kinase still bound, per cent of control (MAPK15 (human)): 7.1% | kinase still bound, per cent of control (MAP3K9 (human)): 80% | kinase still bound, per cent of control (NLK (human)): 81% | kinase still bound, per cent of control (TNNI3K (human)): 77% | kinase still bound, per cent of control (CDKL3 (human)): 41% | kinase still bound, per cent of control (MAK (human)): 5.6% | kinase still bound, per cent of control (PRKCI (human)): 100% | kinase still bound, per cent of control (CSK (human)): 97% | kinase still bound, per cent of control (CSNK1G1 (human)): 69% | kinase still bound, per cent of control (ROCK1 (human)): 22% | kinase still bound, per cent of control (PRKAA2 (human)): 81% | kinase still bound, per cent of control [5]: 1% | kinase still bound, per cent of control (RPS6KA4 KD1 (human)): 82% | kinase still bound, per cent of control (RPS6KB1 (human)): 68% | kinase still bound, per cent of control [6]: 67% | kinase still bound, per cent of control (HCK (human)): 100% | kinase still bound, per cent of control (HIPK4 (human)): 18% | kinase still bound, per cent of control (PIK3CB (human)): 94% | kinase still bound, per cent of control (DAPK2 (human)): 75% | kinase still bound, per cent of control (MAPK9 (human)): 0% | kinase still bound, per cent of control (ALK (human)): 100% | kinase still bound, per cent of control (CDKL2 (human)): 21%
